According to patent US20240307409A1, “ARGININE METHYLTRANSFERASE INHIBITOR AND USE THEREOF” (Cytosinlab Therapeutics Co., Ltd., priority 2021, published 2024):

What was measured:
[1] = target: PRMT1 (Homo sapiens, UniProt Q99873); experiment: PRMT1 enzyme activity test; format: biochemical; settings: 0.5 nM PRMT1, 3H-SAM, peptide
In short: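 Radiometric methylation assay: 0.5 nM PRMT1 preincubated 15 min at room temperature with compound (10-point 3-fold series, 1% DMSO) in pH 8.0 Tris buffer with Tween-20 and DTT. 0.25 uM ³H-SAM and 0.1 uM biotinylated peptide then reacted 120 min. Product captured on streptavidin FlashPlate and counted; IC50 from four-parameter fit of % inhibition.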

[2] = tested on: MMA in RKO cells; experiment: RKO In Cell Western assay (MMA primary antibody); format: cell-based; settings: Homo sapiens, 72 hours, read-out: RKO ICW_EC30
Description: RKO was seeded at a concentration of 20,000 cells/ml into a polylysine-coated 96-well plate (Corning #3599), with 2,000 cells per well and 100 μL of culture mediumper well. 500 nL of compound was added to the 96-well plate. 3) The 96-well plate was incubated in a 37° C., 5% CO2 incubator for 72 hours. After three days, the 96-well plate was taken from the incubator, 100 μL of 8% paraformaldehyde solution was added to each well, and the plate was placed at room temperature for 15 min. After 15 min, the liquid in the plate was shaken out and the plate was washed three times with phosphate buffer (1*PBS). The liquid in the plate was shaken out and 200 μL of membrane-breaking buffer (0.1% (v/v) Tween-20 in PBS) was added and the plate was incubated on a shaker for 30 min. After half an hour, the liquid in the plate was shaken out, and blocking buffer was added and the plate was incubated for two hours at room temperature with shaking. After that, the liquid in the plate was shaken off, and the blocking solution containing primary antibody (MMA primary antibody, CST #8711S, 1:1000 v/v) was added to the 96-well plate and the plate was incubated at 4° C. overnight with shaking. The next day, the plate was washed three times with washing solution (0.05% (v/v) Tween-20 in PBS), and a blocking solution containing secondary antibody (goat anti-rabbit IgG (H+L) Invitrogen #31460, 1:10,000 v/v) was added and the plate was incubated for two hours at room temperature. Afterwards, the 96-well plate was washed four times with washing solution. The TMB mixture was added to the 96-well plate and then the plate was incubated for 15 minutes at room temperature with shaking. After that, the reaction terminating solution was added, and the value was read at OD450 nm using an microplate reader. The plate was washed three times with washing solution, and 50 μL of janusgreen staining solution was added, and the plate was incubated for 15 minutes at room temperature with shaking. The reaction was washed ten times with water until no color residue was left. 200 μL of 0.5 M hydrochloric acid solution was added to each well and the plate was incubated for 10 min at room temperature. The value was read at OD595 nm using Flexstation.
Firstly, the ratio OD450/OD595 was calculated for each well
Each plate had six DMSO negative control groups (ZPE) and six 10 μM positive control groups (HPE), and the average of the control group ratios was used to determine the percentage of activation for each test well. The compounds to be tested were triple diluted with DMSO for a total of 8 concentration points with a starting concentration of 5 μM. The equation for calculating the activation percentage of each test well was: […]

[3] = tested on: Toledo cells; experiment: Toledo cell proliferation inhibition assay; format: cell-based; settings: Homo sapiens, Toledo, 144 h; six-day assay, CellTiter-Glo
In short: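 Toledo cells seeded at 2000 cells/well in RPMI 1640 + 10% FBS and incubated with compound for six days at 37° C, 5% CO2. Viability was then read by CellTiter-Glo luminescence after 30 min orbital mixing.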

[4] = tested on: MV-4-11 cells; experiment: MV-4-11 cell proliferation inhibition assay; format: cell-based; settings: Homo sapiens, MV4-11, 144 h; six-day assay, CellTiter-Glo
Description: • A. Purpose: to determine the effects of compounds on Toledo cells through a six-day cell proliferation assay. • B. Reagents and materials: • 1. Cell culture medium: RPMI 1640+10% FBS • 2. 384-well cell culture plate (Corning, item #3764) • 3. 0.4% Taipan Blue Staining Solution (Thermo Fisher, item #T10282) • 4. cell counting plate (Thermo Fisher, item #C10228) • 5. 50 ml reagent reservoir (Corning, item #4870) • 6. 50 ml conical sterile polypropylene centrifuge tube (Thermo Fisher, item #339653) • 7. Automatic cell counter (Thermo Fisher, item #AMQAX1000) • 8. CellTiter-Glo Luminescent Cell Viability Detection Reagent (Promega, item #G7572) • 9. SpectraMax i3x Multi-Mode Enzyme Labeling Instrument (Megaman Molecular Instruments, item #5024062) • C. Experimental method • 1. Resuspending the cells with a pipette. • 2. 0.4% Taipan blue staining solution and Toledo cells were mixed in equal proportion, and the cells were counted using an automatic cell counter. • 3. Toledo cells were diluted to a final concentration of 2000 cells per well and transferred to a 50 ml reagent reservoir. • 4. Diluted Toledo cells were added to a 384-well cell culture plate, 40 ul per well. • 5. The cells were shortly centrifuged and settled. • 6. The cells were incubated in a 37° C., 5% CO2 cell culture incubator. • 7. The substrate in the CellTiter-Glo Luminescent Cell Viability Detection Reagent was mixed with the solution. • 8. After six days, the 384-well cell culture plate was taken from the incubator and 20 ul of configured CellTiter-Glo reagent was added to each well. • 9. 384-well cell culture platewasmixed in an orbital shaker for 30 minutes. • 10. Signal of luminescence was detected with a SpectraMax i3x multi-mode enzyme labeling instrument.
Similar to the Toledo cell proliferation inhibition assay method, the difference was that MV-4-11 cells were used and the cell culture medium was IMDM+10% FBS; in step 3 of the assay method 250 cells per well was used instead;

PRMT1, sequence (Q99873 whole entry): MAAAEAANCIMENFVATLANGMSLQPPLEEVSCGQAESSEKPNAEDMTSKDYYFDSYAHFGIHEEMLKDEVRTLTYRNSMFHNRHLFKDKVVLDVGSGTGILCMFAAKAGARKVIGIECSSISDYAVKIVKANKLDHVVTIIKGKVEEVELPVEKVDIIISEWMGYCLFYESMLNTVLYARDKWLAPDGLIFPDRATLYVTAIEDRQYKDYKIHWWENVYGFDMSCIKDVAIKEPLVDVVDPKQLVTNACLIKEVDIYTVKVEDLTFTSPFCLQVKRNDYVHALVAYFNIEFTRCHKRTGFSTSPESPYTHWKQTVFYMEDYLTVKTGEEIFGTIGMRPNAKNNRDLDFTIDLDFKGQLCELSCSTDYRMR

SMILES | IC50 [1] [nM] | EC30 [2] [nM] | IC50 [3] [nM] | IC50 [4] [nM]
CNCCN(C)Cc1ccc2[nH]ncc2c1C1CCc2cc(F)c(F)cc2CC1 [P167, N1-((4-(2,3-difluoro-6,7,8,9-tetrahydro-5H-benzo[7]cyclopenten-7-yl)-1H-indazol-5-yl)methyl)-N1,N2-dimethylethane-1,2-diamine] | < 50 | < 250 | < 1000 | –
CNCCN(C)Cc1ncccc1C1CCN(c2ccccc2OC)CC1 [P170] | < 50 | 250 to 2500 | < 1000 | –
CNCCN(C)Cc1ncccc1N1CCC(Oc2cccc(C)c2)CC1 [P171] | < 50 | 250 to 2500 | < 1000 | –
CNCCN(C)Cc1ncccc1N1CCC(Oc2cccc(F)c2)CC1 [P179] | < 50 | 250 to 2500 | < 1000 | –
CCOCC1(Oc2cccc(C(F)(F)F)c2)CCN(c2cccnc2CN(C)CCNC)CC1 [P184] | 50 to 500 | > 2500 | < 1000 | –
CNCCN(C)Cc1ncccc1N1CCC(Oc2ccccc2)CC1 [P185] | < 50 | 250 to 2500 | < 1000 | –
CNCCN(C)Cc1ncccc1N1CCc2ccc(OC)cc2CC1 [P186] | < 50 | 250 to 2500 | < 1000 | –
CNCCN(C)Cc1ncccc1C1CCN(c2ccc(C#N)c(C)c2)CC1 [P187] | < 50 | < 250 | < 1000 | –
CNCCN(C)Cc1ccc(N)nc1C1CCc2cc(F)c(F)cc2CC1 [P198] | < 50 | < 250 | < 1000 | –
CNCCN(C)Cc1ncccc1C1CCN(c2ccc(C#N)cc2)CC1 [P202] | < 50 | 250 to 2500 | < 1000 | –
CCOCC1(COCC)CCC(c2cnccc2CN(C)CCNC)CC1 [P206] | 50 to 500 | 250 to 2500 | 1000 to 5000 | –
CCOCC1(COCC)CCC(c2ncccc2CN(C)CCNC)CC1 [P208] | < 50 | 250 to 2500 | < 1000 | –
CNCCN(C)Cc1ncccc1N1CCc2ccc(C#N)cc2CC1 [P225] | < 50 | < 250 | < 1000 | –
CNCCN(C)Cc1ccc(N)nc1C1CCN(c2cccc(C)c2)CC1 [P226, N^1-((6-amino-2-(1-(m-tolyl)piperidin-4-yl)pyridin-3-yl)methyl)-N^1,N^2-dimethylethane-1,2-diamine] | < 50 | < 250 | < 1000 | –
CNCCN(C)Cc1ncccc1C1CCN(c2nc(N(C)C)nc3ccccc23)CC1 [P240] | < 50 | 250 to 2500 | < 1000 | –
CNCCN(C)Cc1ncccc1N1CCc2ccc(N)cc2CC1 [P243] | < 50 | 250 to 2500 | < 1000 | –
CNCCN(C)Cc1ncccc1C1CCN(c2ncc3ccccc3n2)CC1 [P250] | < 50 | 250 to 2500 | < 1000 | –
CNCCN(C)Cc1ncccc1C1CCN(c2ccnc(N3CCCC3)n2)CC1 [P251] | < 50 | 250 to 2500 | < 1000 | –
CNCCN(C)Cc1ncccc1C1CCN(c2nccc(N3CCCC3)n2)CC1 [P252] | < 50 | 250 to 2500 | < 1000 | –
CCOCC1(COCC)CCC(c2cc3c(cc2CN(C)CCNC)CNC3=O)CC1 [P258] | < 50 | < 250 | < 1000 | –
CNCCN(C)Cc1ccc2[nH]c(=O)[nH]c2c1C1CCN(c2cccc(C)c2)CC1 [P261] | – | – | – | < 1000
CNCCN(C)Cc1ncccc1N1CCc2nc(SC)nc(C)c2CC1 [P323] | < 50 | > 2500 | < 1000 | –
CNCCN(C)Cc1cc(F)ccc1C1CCN(S(=O)(=O)c2ccccc2[N+](=O)[O-])CC1 [P325] | < 50 | 250 to 2500 | < 1000 | –

SMILES | IC50 [1] [nM] | EC30 [2] [nM] | IC50 [3] [nM] | IC50 [4] [nM]
CNCCN(C)Cc1ccc(NCCNCC(=O)NC)nc1C1CCN(c2cccc(C)c2)CC1 [P400] | – | – | – | < 1000
CNCCN(C)Cc1ccc2nn(C)cc2c1C1CCN(c2cccc(C)c2)CC1 [P401] | < 50 | – | – | < 1000
CNCCN(C)Cc1cc2nc(N)[nH]c2cc1C1CCN(c2cccc(C)c2)CC1 [P408] | – | – | – | ≥ 5000
CNCCN(C)Cc1ccc2c(c1C1CCN(c3cccc(C)c3)CC1)CC(C)(C)C(=O)N2 [P410] | – | – | – | < 1000
CNCCN(C)Cc1ncc2[nH]c(=O)[nH]c2c1C1CCN(c2cccc(C)c2)CC1 [P413] | – | – | – | < 1000
CNCCN(C)Cc1ncc2[nH]c(N3CCOCC3)nc2c1C1CCN(c2cccc(C)c2)CC1 [P414] | – | – | – | < 1000
CNCCN(C)Cc1ncc2[nH]c(C)nc2c1C1CCN(c2cccc(C)c2)CC1 [P415] | – | – | – | < 1000
CNCCN(C)Cc1ccc2[nH]c(C(F)(F)F)nc2c1C1CCN(c2cccc(C)c2)CC1 [P416] | – | – | – | < 1000
CNCCN(C)Cc1ccc2[nH]c(-c3cnc(C)nc3)nc2c1C1CCN(c2cccc(C)c2)CC1 [P418] | – | – | – | < 1000
CCOCC1(COCC)CCC(c2c(CN(C)CCNC)ccc3[nH]c(N4CCOCC4)nc23)CC1 [P419] | – | – | – | < 1000
CNCCN(C)Cc1ccc2[nH]c(N3CCOCC3)nc2c1C1CCc2cc(F)c(F)cc2CC1 [P420] | – | – | – | < 1000
CNCCN(C)Cc1ccc2[nH]c(C3=CCOCC3)nc2c1C1CCN(c2cccc(C)c2)CC1 [P422] | – | – | – | < 1000
CNCCN(C)Cc1ccc2[nH]c(N3CCN(C)CC3)nc2c1C1CCN(c2cccc(C)c2)CC1 [P423] | – | – | – | < 1000
CNCCN(C)Cc1ccc2[nH]c(N3CCCCC3)nc2c1C1CCN(c2cccc(C)c2)CC1 [P424] | – | – | – | < 1000
Cc1cccc(N2CCC(c3c(CN(C)CCN)ccc4[nH]c(N5CCOCC5)nc34)CC2)c1 [P425] | – | – | – | < 1000
CCN(CCNC)Cc1ccc2[nH]c(N3CCOCC3)nc2c1C1CCN(c2cccc(C)c2)CC1 [P426] | – | – | – | < 1000
CNCCN(C)Cc1ccc2[nH]c(N3CCOCC3)nc2c1C1CCN(c2cccc(C)n2)CC1 [P428] | – | – | – | < 1000
CNCCN(C)Cc1ccc2[nH]c(N3CCOCC3)nc2c1C1CCN(c2cncc(F)c2)CC1 [P429] | – | – | – | < 1000
CNCCN(C)Cc1ccc2[nH]c(N3CCNCC3)nc2c1C1CCN(c2cccc(C)c2)CC1 [P440] | – | – | – | < 1000
CNCCN(C)Cc1ccc2[nH]c(N3CCN(C(=O)CCCC(=O)N4CCN(c5nc6c(C7CCN(c8cccc(C)c8)CC7)c(CN(C)CCNC)ccc6[nH]5)CC4)CC3)nc2c1C1CCN(c2cccc(C)c2)CC1 [P442] | – | – | – | < 1000
CNCCN(C)Cc1ccc2[nH]c(C3=CCN(C)CC3)nc2c1C1CCN(c2cccc(C)c2)CC1 [P447] | – | – | – | < 1000
CNCCN(C)Cc1ccc2[nH]c(C3CCN(C)CC3)nc2c1C1CCN(c2cccc(C)c2)CC1 [P448] | – | – | – | < 1000
